Results reported in ChEMBL document CHEMBL5649170, “Sustained microglial depletion with CSF1R inhibitor impairs parenchymal plaque development in an Alzheimer's disease model” (Nat Commun, 2019).

Experiments:
[1] = Dissociation constant, pKa of compound; type: physicochemical
[2] = Inhibition of BCR-CSF1R (unknown origin) expressed in mouse BaF3 cells assessed as inhibition of BCR-CSF1R dependent cell proliferation incubated for 3 days by ATPlite 1step Luminescence Assay reagent based assay; details: Homo sapiens, BaF3, 72 h
[3] = Inhibition of BCR-CSF1R (unknown origin) expressed in mouse BaF3 cells assessed as inhibition of IL3-dependent cell proliferation incubated for 3 days by ATPlite 1step Luminescence Assay reagent based assay; details: Homo sapiens, BaF3, 72 h
[4] = Inhibition of BCR-KIT (unknown origin) expressed in mouse BaF3 cells assessed as inhibition of BCR-KIT dependent cell proliferation incubated for 3 days by ATPlite 1step Luminescence Assay reagent based assay; details: Homo sapiens, BaF3, 72 h
[5] = Inhibition of BCR-KIT (unknown origin) expressed in mouse BaF3 cells assessed as inhibition of IL3 dependent cell proliferation incubated for 3 days by ATPlite 1step Luminescence Assay reagent based assay; details: Homo sapiens, BaF3, 72 h
Brain = test: Drug penetration in mouse brain; type: ADME, tissue-based; details: in vivo
[6] = Octanol to water partition coefficient, logD of the compound; type: physicochemical
[7] = Permeability in human Caco-2 cells; type: ADME, cell-based; details: read-out: permeability
[8] = target: T1, Macrophage colony-stimulating factor 1 receptor (Mus musculus) (UniProt P09581); test: In vivo inhibition of CSF1R in wildtype mouse assessed as microglial numbers by measuring number of Iba positive cells per FOV in […] cortex at 75 ppm administered as rodent chow starting from 1.5 months and measured after 5 months by immunolabeling based confocal microscopic analysis (reference value: 200 to 275); type: functional; details: route po, time 3.5 months
T1 sequence (whole entry): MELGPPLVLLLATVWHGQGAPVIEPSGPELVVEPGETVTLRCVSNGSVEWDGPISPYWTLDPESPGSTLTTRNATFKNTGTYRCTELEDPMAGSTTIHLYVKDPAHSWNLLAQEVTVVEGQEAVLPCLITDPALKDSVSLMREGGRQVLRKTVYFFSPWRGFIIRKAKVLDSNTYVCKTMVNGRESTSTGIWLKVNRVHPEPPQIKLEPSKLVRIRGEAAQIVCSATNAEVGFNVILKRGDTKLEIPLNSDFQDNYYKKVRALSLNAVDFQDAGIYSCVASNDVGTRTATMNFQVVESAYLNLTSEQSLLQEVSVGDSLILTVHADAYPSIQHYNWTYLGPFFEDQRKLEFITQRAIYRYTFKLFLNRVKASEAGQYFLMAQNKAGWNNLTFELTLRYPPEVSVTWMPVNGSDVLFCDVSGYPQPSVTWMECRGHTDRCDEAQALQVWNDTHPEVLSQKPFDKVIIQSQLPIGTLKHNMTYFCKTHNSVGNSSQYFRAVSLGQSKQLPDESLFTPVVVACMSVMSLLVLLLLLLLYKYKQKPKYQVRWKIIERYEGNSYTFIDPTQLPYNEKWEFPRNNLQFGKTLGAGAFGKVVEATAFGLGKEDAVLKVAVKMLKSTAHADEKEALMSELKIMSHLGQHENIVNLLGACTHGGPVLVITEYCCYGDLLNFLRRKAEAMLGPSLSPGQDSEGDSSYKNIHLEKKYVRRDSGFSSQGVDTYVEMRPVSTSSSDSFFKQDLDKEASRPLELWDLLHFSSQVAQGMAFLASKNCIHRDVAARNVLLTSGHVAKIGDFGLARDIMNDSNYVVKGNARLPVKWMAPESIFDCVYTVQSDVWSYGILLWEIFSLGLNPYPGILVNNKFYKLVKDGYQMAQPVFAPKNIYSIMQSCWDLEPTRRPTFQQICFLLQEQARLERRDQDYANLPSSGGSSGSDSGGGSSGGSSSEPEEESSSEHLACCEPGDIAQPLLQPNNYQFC

[9] = target: Dual specificity tyrosine-phosphorylation-regulated kinase 1A (Homo sapiens, UniProt Q13627); test: Inhibition of DYRK1A (unknown origin)
[10] = target: G protein-coupled receptor kinase 5 (Homo sapiens, UniProt P34947); test: Inhibition of GRK5 (unknown origin)
[11] = target: Serine/threonine-protein kinase PLK1 (Homo sapiens, UniProt P53350); test: Inhibition of PLK1 (unknown origin)
[12] = target: Ribosomal protein S6 kinase alpha-2 (Homo sapiens, UniProt Q15349); test: Inhibition of RPS6KA2 (unknown origin)
[13] = target: Testis-specific serine/threonine-protein kinase 2 (Homo sapiens, UniProt Q96PF2); test: Inhibition of STK22B (unknown origin)
[14] = target: Testis-specific serine/threonine-protein kinase 1 (Homo sapiens, UniProt Q9BXA7); test: Inhibition of STK22D (unknown origin)
Angiopoietin-1 receptor = Angiopoietin-1 receptor (Homo sapiens, UniProt Q02763); test: Inhibition of TEK (unknown origin)
[15] = Cmax in male rat at 45 mg/kg, po administered as single dose via gavage; type: ADME, organism-based; details: in vivo
Mus musculus [16] = test: Effect on circulating leukocytes in wildtype mouse assessed as percentage of CD45+/PI- cells expressing CD8 at 1200 ppm administered as rodent chow for 10 to 24 weeks (reference value: 5.56 to 11.8 %); type: functional; details: route po, time 10-24 weeks
Mus musculus [17] = test: Effect on circulating leukocytes in wildtype mouse assessed as percentage of CD45+/PI- cells expressing CD11c at 1200 ppm administered as rodent chow for 10 to 24 weeks (reference value: 4.18 to 10.2 %); type: functional; details: route po, time 10-24 weeks
Mus musculus [18] = test: Effect on circulating leukocytes in wildtype mouse assessed as percentage of CD45+/PI- cells expressing CD11c at 1200 ppm administered as rodent chow for 10 to 24 weeks (reference value: 34.7 to 54.3 %); type: functional; details: route po, time 10-24 weeks
Mus musculus [19] = test: Antialzheimer activity in wildtype mouse assessed as number of Iba positive cells per FOV in thalamus at 1200 ppm administered as rodent chow starting from 1.5 months and measured after 4 months (reference value: 232 to 320); type: functional; details: route po, time 2.5 months, 1825 h
Mus musculus [20] = test: Antialzheimer activity in 5XFAD mouse assessed as number of entries to center zone at 1200 ppm administered as rodent chow for 10 to 24 weeks by Open field test (reference value: 22 to 55); type: functional; details: route po, time 10-24 weeks
Mus musculus [21] = test: Antialzheimer activity in 5XFAD mouse assessed as average diameter of claudin-5 blood vessels in Thio-S negative retro spinal cortex at 1200 ppm administered as rodent chow starting from 1.5 months and measured after 4 months by immunolabeling analysis; type: functional; details: route po, time 2.5 months, 1825 h
Mus musculus [22] = test: Antialzheimer activity in 5XFAD mouse assessed as number of plaques in subiculum at 1200 ppm administered as rodent chow starting from 1.5 months and measured after 7 months by immunolabeling based confocal microscopic analysis (reference value: 139 to 212); type: functional; details: route po, time 5.5 months, 4015 h
[23] = Effect on Kcnq3 gene expression in wildtype mouse hippocampus assessed as percent change in Reads Per kilo base per Million mapped reads at 1200 ppm administered as rodent chow starting from 1.5 months and measured after 7 months by RNA-Seq analysis (reference value: 77.761 to 119.973 %); type: functional; details: route po, time 5.5 months, 4015 h

Sequence of G protein-coupled receptor kinase 5 (P34947 whole entry): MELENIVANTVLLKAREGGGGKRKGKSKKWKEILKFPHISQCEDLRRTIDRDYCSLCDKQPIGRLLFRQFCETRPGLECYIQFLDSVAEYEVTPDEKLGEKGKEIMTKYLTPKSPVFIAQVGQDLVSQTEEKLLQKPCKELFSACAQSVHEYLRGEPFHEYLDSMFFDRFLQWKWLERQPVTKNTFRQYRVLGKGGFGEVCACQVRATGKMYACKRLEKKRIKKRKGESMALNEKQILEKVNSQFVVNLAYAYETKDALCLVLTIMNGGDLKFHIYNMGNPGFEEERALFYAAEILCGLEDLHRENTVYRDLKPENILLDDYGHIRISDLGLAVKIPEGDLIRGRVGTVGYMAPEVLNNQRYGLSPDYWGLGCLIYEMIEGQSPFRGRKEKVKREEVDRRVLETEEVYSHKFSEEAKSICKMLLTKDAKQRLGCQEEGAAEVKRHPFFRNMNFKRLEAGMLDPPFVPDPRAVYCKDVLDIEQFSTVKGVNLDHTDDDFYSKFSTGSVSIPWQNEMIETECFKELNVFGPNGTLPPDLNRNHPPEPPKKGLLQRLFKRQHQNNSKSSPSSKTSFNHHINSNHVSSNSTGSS
Sequence of Angiopoietin-1 receptor (Q02763 whole entry): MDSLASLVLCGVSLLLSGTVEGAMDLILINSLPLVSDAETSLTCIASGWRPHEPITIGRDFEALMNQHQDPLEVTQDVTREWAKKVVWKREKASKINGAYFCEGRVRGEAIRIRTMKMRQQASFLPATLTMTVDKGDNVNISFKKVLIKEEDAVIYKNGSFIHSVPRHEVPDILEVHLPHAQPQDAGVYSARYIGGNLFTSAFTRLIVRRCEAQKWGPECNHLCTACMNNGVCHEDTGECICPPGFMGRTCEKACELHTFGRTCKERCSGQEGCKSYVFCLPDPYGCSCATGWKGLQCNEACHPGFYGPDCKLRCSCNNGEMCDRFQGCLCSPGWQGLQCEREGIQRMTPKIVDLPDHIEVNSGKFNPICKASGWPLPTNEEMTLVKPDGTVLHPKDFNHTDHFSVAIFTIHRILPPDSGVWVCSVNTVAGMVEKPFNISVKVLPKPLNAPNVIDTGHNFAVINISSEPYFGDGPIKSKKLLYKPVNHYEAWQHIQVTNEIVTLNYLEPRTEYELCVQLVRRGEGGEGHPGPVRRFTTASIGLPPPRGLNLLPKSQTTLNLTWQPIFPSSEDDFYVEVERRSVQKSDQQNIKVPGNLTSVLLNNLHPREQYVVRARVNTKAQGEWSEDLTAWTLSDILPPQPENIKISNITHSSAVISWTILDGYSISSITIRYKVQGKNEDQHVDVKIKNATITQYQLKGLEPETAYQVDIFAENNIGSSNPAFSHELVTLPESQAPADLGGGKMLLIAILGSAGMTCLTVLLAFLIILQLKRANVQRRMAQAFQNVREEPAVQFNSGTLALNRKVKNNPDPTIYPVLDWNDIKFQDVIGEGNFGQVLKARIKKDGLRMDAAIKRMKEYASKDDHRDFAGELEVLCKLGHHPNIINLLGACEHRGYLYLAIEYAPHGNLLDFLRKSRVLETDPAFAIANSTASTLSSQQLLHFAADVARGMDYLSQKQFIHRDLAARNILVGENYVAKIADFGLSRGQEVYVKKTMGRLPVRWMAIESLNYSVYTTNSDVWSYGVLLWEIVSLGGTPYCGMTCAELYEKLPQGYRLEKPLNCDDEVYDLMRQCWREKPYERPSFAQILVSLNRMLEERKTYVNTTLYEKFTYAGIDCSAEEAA
Sequence of Testis-specific serine/threonine-protein kinase 1 (Q9BXA7 whole entry): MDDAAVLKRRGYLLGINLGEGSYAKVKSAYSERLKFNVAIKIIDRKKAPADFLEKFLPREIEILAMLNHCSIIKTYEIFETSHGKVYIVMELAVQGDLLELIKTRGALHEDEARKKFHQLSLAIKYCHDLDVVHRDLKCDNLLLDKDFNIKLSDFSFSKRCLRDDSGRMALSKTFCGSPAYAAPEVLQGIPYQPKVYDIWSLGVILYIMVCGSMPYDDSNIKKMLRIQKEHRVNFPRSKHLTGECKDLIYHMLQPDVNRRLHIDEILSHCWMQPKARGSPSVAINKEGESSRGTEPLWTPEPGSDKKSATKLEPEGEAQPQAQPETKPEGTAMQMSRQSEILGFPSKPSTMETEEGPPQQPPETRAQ
Sequence of Serine/threonine-protein kinase PLK1 (P53350 whole entry): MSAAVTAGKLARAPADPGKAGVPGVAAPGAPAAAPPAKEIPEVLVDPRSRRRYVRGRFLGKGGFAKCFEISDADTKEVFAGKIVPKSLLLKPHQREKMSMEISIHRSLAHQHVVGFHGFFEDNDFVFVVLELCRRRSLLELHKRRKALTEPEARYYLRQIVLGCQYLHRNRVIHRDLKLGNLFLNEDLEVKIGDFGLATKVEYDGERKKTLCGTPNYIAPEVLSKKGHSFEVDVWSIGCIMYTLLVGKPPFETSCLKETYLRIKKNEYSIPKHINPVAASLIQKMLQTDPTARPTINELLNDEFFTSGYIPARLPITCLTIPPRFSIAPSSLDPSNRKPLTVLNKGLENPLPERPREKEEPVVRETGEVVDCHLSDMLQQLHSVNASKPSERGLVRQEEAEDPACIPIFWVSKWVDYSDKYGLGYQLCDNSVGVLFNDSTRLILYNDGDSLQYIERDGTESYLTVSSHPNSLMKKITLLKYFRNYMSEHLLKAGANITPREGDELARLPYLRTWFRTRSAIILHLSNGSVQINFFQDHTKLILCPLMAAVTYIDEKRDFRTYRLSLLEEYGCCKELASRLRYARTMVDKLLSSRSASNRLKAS
Sequence of Testis-specific serine/threonine-protein kinase 2 (Q96PF2 whole entry): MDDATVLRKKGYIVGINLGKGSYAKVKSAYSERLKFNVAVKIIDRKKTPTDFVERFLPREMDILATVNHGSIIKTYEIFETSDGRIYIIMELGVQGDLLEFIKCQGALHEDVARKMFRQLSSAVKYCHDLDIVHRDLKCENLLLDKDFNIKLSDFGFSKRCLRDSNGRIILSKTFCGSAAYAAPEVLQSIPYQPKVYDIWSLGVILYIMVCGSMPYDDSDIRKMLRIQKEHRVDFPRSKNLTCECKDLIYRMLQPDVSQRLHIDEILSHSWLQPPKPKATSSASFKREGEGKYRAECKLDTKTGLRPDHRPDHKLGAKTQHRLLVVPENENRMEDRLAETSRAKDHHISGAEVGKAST
Sequence of Ribosomal protein S6 kinase alpha-2 (Q15349 whole entry): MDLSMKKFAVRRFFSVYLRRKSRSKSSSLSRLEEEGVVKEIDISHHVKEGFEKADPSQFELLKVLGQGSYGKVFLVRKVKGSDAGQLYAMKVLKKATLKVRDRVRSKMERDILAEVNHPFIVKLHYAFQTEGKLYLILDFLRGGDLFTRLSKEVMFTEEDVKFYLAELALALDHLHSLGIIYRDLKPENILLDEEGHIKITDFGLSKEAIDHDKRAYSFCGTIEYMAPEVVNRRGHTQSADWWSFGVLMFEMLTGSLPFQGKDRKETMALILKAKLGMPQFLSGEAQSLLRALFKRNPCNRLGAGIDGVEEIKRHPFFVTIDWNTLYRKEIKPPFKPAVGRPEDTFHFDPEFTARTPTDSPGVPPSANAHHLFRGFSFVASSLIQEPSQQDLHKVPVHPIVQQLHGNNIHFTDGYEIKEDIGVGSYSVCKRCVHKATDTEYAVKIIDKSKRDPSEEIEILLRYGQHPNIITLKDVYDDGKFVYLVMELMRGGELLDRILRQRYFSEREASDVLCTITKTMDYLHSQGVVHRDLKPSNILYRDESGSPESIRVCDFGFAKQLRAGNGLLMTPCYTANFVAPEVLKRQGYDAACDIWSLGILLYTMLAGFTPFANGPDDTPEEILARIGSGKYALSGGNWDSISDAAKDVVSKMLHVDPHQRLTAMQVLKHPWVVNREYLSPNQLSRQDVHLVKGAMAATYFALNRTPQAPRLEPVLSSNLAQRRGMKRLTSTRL

`FC(F)(F)c1ccc(CNc2ccc(Cc3c[nH]c4ncc(Cl)cc34)cn2)cn1` [PEXIDARTINIB] showed a pKa [1] of 5.2, an IC50 [2] of 9 nM and an IC50 [3] greater than 10000 nM. The IC50 [4] was 110 nM, the IC50 [5] was greater than 10000 nM and the Drug uptake (Brain) was ~ 5%. It also gave a logD [6] of 3.35, a Papp [7] of 1.4 ×10⁻⁶ cm/s and an Activity [8] of 162.
Work on `COc1ncc(F)cc1CNc1ccc(Cc2c[nH]c3ncc(C)cc23)c(F)n1` [PLX-5622] yielded a pKa [1] of 4.14, an IC50 [9] greater than 1000 nM and an IC50 [10] greater than 1000 nM. It also gave an IC50 [11] greater than 1000 nM, an IC50 [12] greater than 1000 nM and an IC50 [13] greater than 1000 nM. It also gave an IC50 [14] greater than 1000 nM, an IC50 (Angiopoietin-1 receptor) greater than 1000 nM and an IC50 [2] of 17 nM. For the same molecule, the IC50 [3] was greater than 10000 nM, the IC50 [4] was 2700 nM and the IC50 [5] was greater than 10000 nM. For the same molecule, the Cmax [15] was 12000 ng/mL, the Drug uptake (Brain) was ~ 20% and the logD [6] was 3.92. For the same molecule, the Papp [7] was 12.2 ×10⁻⁶ cm/s, the Activity (Mus musculus [16]) was 6.35% and the Activity (Mus musculus [17]) was 3.32%. For the same molecule, the Activity (Mus musculus [18]) was 31.4%, the Activity (Mus musculus [19]) was 0 and the Activity (Mus musculus [20]) was 7. For the same molecule, the Activity (Mus musculus [21]) was 1.786 um, the Activity (Mus musculus [22]) was 97 and the Activity [23] was 52.407%.
